Assay results as given in article PMC6274455, “Isolation of α-Amylase Inhibitors from Kadsura longipedunculata Using a High-Speed Counter-Current Chromatography Target Guided by Centrifugal Ultrafiltration with LC-MS” (Molecules, 2016).
pIC50: −log10 of the molar value. Like-named read-outs stand apart in the source and are kept apart here.

Biological target: T1, α-amylase (Sus scrofa, UniProt P00690)
T1 construct: gene AMY2
T1 sequence (P00690 16-511): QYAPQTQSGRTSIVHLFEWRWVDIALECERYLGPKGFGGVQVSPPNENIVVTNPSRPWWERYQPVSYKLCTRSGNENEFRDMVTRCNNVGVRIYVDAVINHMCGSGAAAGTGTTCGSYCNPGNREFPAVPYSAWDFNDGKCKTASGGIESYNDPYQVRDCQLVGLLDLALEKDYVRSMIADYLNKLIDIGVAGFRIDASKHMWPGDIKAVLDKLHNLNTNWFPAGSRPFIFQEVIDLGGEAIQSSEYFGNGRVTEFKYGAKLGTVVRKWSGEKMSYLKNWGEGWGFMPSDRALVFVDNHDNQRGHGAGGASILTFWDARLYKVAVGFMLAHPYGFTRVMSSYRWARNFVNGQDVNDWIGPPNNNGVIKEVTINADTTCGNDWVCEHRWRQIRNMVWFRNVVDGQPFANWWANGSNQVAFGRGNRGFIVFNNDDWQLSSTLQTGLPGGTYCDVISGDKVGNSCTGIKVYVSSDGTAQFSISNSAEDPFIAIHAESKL
Test: α-amylase inhibition assay of isolated compound; also captured by centrifugal ultrafiltration LC-MS with active but not denatured enzyme
Format: biochemical

Compound	pIC50	pIC50 (read-out: IC50)
C[C@@H]1O[C@@H](Oc2c(-c3ccc(O)c(O)c3)oc3cc(O)cc(O)c3c2=O)[C@H](O)[C@H](O)[C@H]1O [compound 1, quercetin-3-O-rhamnoside]	4.54	–
O=C(O)c1ccc(O)c(O)c1 [compound 2, protocatechuic acid]	–	4.90
